Laboratory results as given in patent US20250032468A1, “OCULAR SURFACE TOPICAL ADMINISTRATION OF ROFLUMILAST FOR TREATMENT OF ANTERIOR AND RETINAL-VITREOUS CHAMBER OCULAR DISEASES” (IOLYX THERAPEUTICS, INC., priority 2023, published 2025).
Where two headings read alike, the source gives them in different places.

Experiments:
[1] = Ocular tissue concentration of roflumilast after 5 days topical ocular dosing (Example 8, Table 7); assay type: in vivo, Dutch belted rabbits
Experimental: Two unique animal studies were conducted to assess the concentration of roflumilast in various tissues following administration of different concentrations of Example 3. The concentration in various tissues was assessed following five days of administration of the following dosing regimens: (a) 1% w/v roflumilast three times a day (TID); (b) 0.3% w/v roflumilast three times a day (TID); or (c) 0.1% w/v roflumilast two times a day (BID). In one study encompassing (a) and (b), n=6 Dutch belted rabbits per dose arm were dosed topically three times per day according to arm on days 1 to 4, and on day 5, a single dose was given at hour 0. In a different study with the same methodologies and practices, n=21 Dutch belted rabbits represented in group (c) were dosed two times per day on days 1 to 4, and on day 5, a single dose was given at hour 0. […] In the original study conducted solely with arm (c), a dose curve was created using time points at 0.5, 2, 4, 8, and 24 hours. To reduce the number of animals in the second experiment, for group (a) and (b), only 0.5 and 8 hours were tested. FIG. 1 provides data for the concentration of roflumilast (ng/g) in the iris ciliary body (ICB) as a function of time following: (a) 1% w/v roflumilast administered three times a day; (b) 0.3% w/v roflumilast administered three times a day; or (c) 0.1% w/v roflumilast administered two times a day. FIG. 2 provides data for the concentration of roflumilast (ng/g) in the aqueous humor (AH) as a function of time following: (a) 1% w/v roflumilast administered three times a day; (b) 0.3% w/v roflumilast administered three times a day; or (c) 0.1% w/v roflumilast administered two times a day. FIG. 3 provides data for the concentration of roflumilast (ng/g) in the retina/choroid/retina pigment epithelium (RPE) as a function of time following: (a) 1% w/v roflumilast administered three times a day; (b) 0.3% w/v roflumilast administered three times a day; or (c) 0.1% w/v roflumilast administered two times a day. […] (Claveau, 2004) This ratio is shown at both 0.5 hours, closest to a Cmax time point, and 8 hrs, which would be a time point close to a redosing time point for a TID dosing.

[2] = Ocular pigment binding, equilibrium sepia melanin association (Covance, method by Koeberle et al.); assay type: in vitro ADME
[3] = Saturation concentration of roflumilast in the suspension formulation; assay type: physicochemical; details: formulation characteristic used in the simulation
Experimental: Computational modeling of topical ophthalmic roflumilast dosing was carried out using an ocular simulation computer program based on Matlab® (Mathworks, Natick, MA) programming language using a runtime Java® applet for a graphical user-friendly interface. Physiological and anatomic parameters for the ocular simulation were customized to model the pigmented rabbit eye, by entering appropriate volumes of distribution and surface areas of anterior and posterior compartment tissues. […] Based on these parameters, theoretical calculations were carried out for all simulations, while for matching concentrations with actual experimental data the model was used for comparison, fitting, and optimization.

[4] = dog, in vivo
Source text: (§1) In the study, male and female dogs (n=3M/3F per arm to week 13, 2M/2F to additional 4 week recovery) received 13 weeks of topical treatment, three times a day, followed by a four week recovery period, in four dose arms, 0%, 0.1%, 0.3%, and 1% concentration of roflumilast. In addition to regular safety and well-being checks, animals were given regular ophthalmic exams, measurement of weight, tonometry to test intraocular pressure, pachymetery to test corneal thickness, clinical chemistry and hematological evaluation, and other routine checks of health and well-being. At the point of study termination, ocular tissues and major organs were tested for macro- and microscopic observation.

[5] = rabbit, in vivo
Experimental: (§2) A study was conducted to evaluate toxicity outcomes of repeated topical ocular administration of roflumilast. Male and female New Zealand white rabbits (n=7 per group) were administered: (a) vehicle-based placebo three times a day; (b) a 0.1% w/v roflumilast formulation (Example 3) three times a day; (c) a 0.3% w/v roflumilast formulation (Example 3) three times a day; or (d) a 1.0% w/v roflumilast formulation (Example 3) three times a day. In the study, male and female New Zealand White rabbits received 13 weeks of topical treatment, three times a day, followed by a four-week recovery period, in four dose arms, 0%, 0.1%, 0.3%, and 1% concentration of roflumilast. In addition to regular safety and well-being checks, animals were given regular ophthalmic exams, measurement of weight, tonometry to test intraocular pressure, clinical chemistry and hematological evaluation, and other routine checks of health and well being. At the point of study termination, ocular tissues and major organs were tested for macro- and microscopic observation. […] Parameters evaluated included body weight, intraocular pressure (IOP), and central corneal thickness (CCT).

[6] = system: PDE4 A, B, D; details: also printed as 0.07 ng/g; cited from earlier work
[7] = 13-week repeated topical ocular administration study in dogs (Example 10)
Source text: as §1

[8] = 13-week repeated topical ocular administration toxicity study in rabbits (Example 11); details: for intraocular pressure: FIG. 15
Experimental: as §2

## O=C(Nc1c(Cl)cncc1Cl)c1ccc(OC(F)F)c(OCC2CC2)c1 [Roflumilast, N-(3,5-dichloropyrid-4-yl)-3-cyclopropylmethoxy-4-difluoromethoxybenzamide]
[1]; AH, 0.10% BID days 1-4, single dose day 5, 0.5 hrs post dose
  Ratio of Roflumilast Concentration to PDE4 IC50: 53×
[1]; AH, 0.10% BID days 1-4, single dose day 5, 8 hrs post dose
  Ratio of Roflumilast Concentration to PDE4 IC50: 0×
[1]; AH, 0.30% TID days 1-4, single dose day 5, 0.5 hrs post dose
  Ratio of Roflumilast Concentration to PDE4 IC50: 143×
[1]; AH, 0.30% TID days 1-4, single dose day 5, 8 hrs post dose
  Ratio of Roflumilast Concentration to PDE4 IC50: 4×
[1]; AH, 1.00% TID days 1-4, single dose day 5, 0.5 hrs post dose
  Ratio of Roflumilast Concentration to PDE4 IC50: 476×
[1]; AH, 1.00% TID days 1-4, single dose day 5, 8 hrs post dose
  Ratio of Roflumilast Concentration to PDE4 IC50: 10×
[1]; Cornea, 0.10% BID days 1-4, single dose day 5, 0.5 hrs post dose
  Ratio of Roflumilast Concentration to PDE4 IC50: 2286×
[1]; Cornea, 0.10% BID days 1-4, single dose day 5, 8 hrs post dose
  Ratio of Roflumilast Concentration to PDE4 IC50: 509×
[1]; ICB, AH, and retina/choroid/RPE, 0.3% and 1% TID
  tissue levels relative to the IC50 level: strong elevation in tissue levels above the IC50 level
[1]; ICB, 0.10% BID days 1-4, single dose day 5, 0.5 hrs post dose
  Ratio of Roflumilast Concentration to PDE4 IC50: 66×
[1]; ICB, 0.10% BID days 1-4, single dose day 5, 8 hrs post dose
  Ratio of Roflumilast Concentration to PDE4 IC50: 2×
[1]; ICB, 0.30% TID days 1-4, single dose day 5, 0.5 hrs post dose
  Ratio of Roflumilast Concentration to PDE4 IC50: 247×
[1]; ICB, 0.30% TID days 1-4, single dose day 5, 8 hrs post dose
  Ratio of Roflumilast Concentration to PDE4 IC50: 9×
[1]; ICB, 1.00% TID days 1-4, single dose day 5, 0.5 hrs post dose
  Ratio of Roflumilast Concentration to PDE4 IC50: 534×
[1]; ICB, 1.00% TID days 1-4, single dose day 5, 8 hrs post dose
  Ratio of Roflumilast Concentration to PDE4 IC50: 22×
[1]; RET/CHOR, 0.10% BID days 1-4, single dose day 5, 0.5 hrs post dose
  Ratio of Roflumilast Concentration to PDE4 IC50: 15×
[1]; RET/CHOR, 0.10% BID days 1-4, single dose day 5, 8 hrs post dose
  Ratio of Roflumilast Concentration to PDE4 IC50: 5×
[1]; RET/CHOR, 0.30% TID days 1-4, single dose day 5, 0.5 hrs post dose
  Ratio of Roflumilast Concentration to PDE4 IC50: 91×
[1]; RET/CHOR, 0.30% TID days 1-4, single dose day 5, 8 hrs post dose
  Ratio of Roflumilast Concentration to PDE4 IC50: 14×
[1]; RET/CHOR, 1.00% TID days 1-4, single dose day 5, 0.5 hrs post dose
  Ratio of Roflumilast Concentration to PDE4 IC50: 167×
[1]; RET/CHOR, 1.00% TID days 1-4, single dose day 5, 8 hrs post dose
  Ratio of Roflumilast Concentration to PDE4 IC50: 52×
[1]; cornea, 0.1% BID four days plus single dose day 5, FIG. 5
  duration of terminal level therapeutic concentrations covering the relevant IC50: ~24 h
[2]
  ocular pigment binding: medium to high
[3]
  saturation concentration: 6 µg/mL
[4]
  tolerability: well tolerated at all concentrations
[5]
  tolerability: well tolerated at all concentrations
[6]
  IC50 of t-cells for the PDE4 A, B, D targets: 0.07 ng/mL
[7]; 0.1%, 0.3%, 1% TID topical ocular, 13 weeks plus 4 week recovery
  major clinical or pathological findings in life or post-mortem: no major test article related findings
[7]; 0.1%, 0.3%, 1.0% w/v TID
  systemic adverse effect on the eye or other organs (ophthalmic and other exams): little to no systemic adverse effect
[7]; all concentrations TID, compared to vehicle-based placebo, FIG. 11
  body weight: did not lose weight
[7]; all treatment groups over the duration of the study, FIG. 13
  central corneal thickness: substantially consistent for all treatment groups
[7]; all treatment groups, only transient changes seen sporadically, FIG. 12
  intraocular pressure: substantially the same for all treatment groups
[8]; New Zealand White rabbits, 0.1%, 0.3%, 1% TID topical ocular, 13 weeks plus four-week recovery
  major clinical or pathological findings in life or post-mortem: no major test article related findings
[8]; rabbits, 0.1% w/v TID, day 28, only transiently, still within a normal range
  intraocular pressure: higher
[8]; rabbits, 0.1%, 0.3%, 1.0% w/v TID
  systemic adverse effect on the eye or other organs (ophthalmic and other exams): little to no systemic adverse effect
[8]; rabbits, all concentrations TID, compared to vehicle-based placebo, FIG. 14
  body weight: did not lose weight
[8]; rabbits, all treatment groups, FIG. 16
  central corneal thickness: substantially the same for all treatment groups
[8]; rabbits, all treatment groups, remaining days
  intraocular pressure: substantially the same for all treatment groups
